According to patent publication US9988400B2 (Genentech, Inc., priority 2013, dated 2018):
pEC50: −log10 of the molar value.

Target: T1, HEK cells stably transfected with tetracycline inducible hNR1 and hNR2A (Homo sapiens, UniProt Q05586+Q12879)
T1 construct: expressed in transfected cells; host or cells: HEK cells, stably transfected, tetracycline/doxycycline inducible
Test: Assay 1: Cell-Based Assay, cytosolic calcium response to positive allosteric modulators (with 30 μM glycine and 300 nM L-glutamate, EC30)
Details: Table 2; for pEC50: cytosolic calcium response, with 30 μM glycine and 300 nM L-glutamate (EC30), — = no plateau was reached; for Max %: responses scaled relative to 100 μM L-glutamate maximal response (100%) and 0 μM L-glutamate (0%)
Procedure: Assay 1: Cell-Based Assay
HEK cells stably transfected with tetracycline inducible hNR1 and hNR2A were seeded into clear bottom 384 well poly-D-lysine coated plates (2.5×10^4 cells per well) in Minimum Essential Media (MEM; without L-) including 7.5 μg mL^−1 doxycycline and 500 μM (+)-ketamine. The cells were incubated at 37° C. in 5% CO2 for 24 h. For measurement of changes in cytosolic calcium, the seeding media was removed and the cells incubated at 37° C. for 60 min with 1× Becton Dickinson Calcium Assay Kit reagent in Hanks Balanced Salt Solution (HBSS; w/o magnesium, including 1.8 mM calcium, 0.65 mg ml^−1 probenecid and 10 μM (+)-ketamine, pH 7.15) then allowed to equilibrate to rt for 30 min. Concentration-effect curves to Positive Allosteric Modulators (PAMs) were constructed by adding different concentrations (with 30 μM glycine and 300 nM L-glutamate (EC30)) to different wells in HBSS. Compounds were added after a 10 second baseline read and maximum level of relative fluorescence units (RFU) was measured over a 5 min period. Responses were scaled relative to 100 μM L-glutamate maximal response (100%) and 0 μM L-glutamate (0%). EC50 values are provided for compounds reaching maximal response plateaus, and the max % (EC50 (- -)) only if no plateau was reached.
A four-parameter Hill equation was fitted to individual concentration-effect curves:
[formula] in which Y, S0, Sinf, AC50, n and c were effect, lower-asymptote, upper-asymptote, mid-point location, slope parameter, and concentration respectively.

T1 sequence (Q12879 23-1464, other chains not shown): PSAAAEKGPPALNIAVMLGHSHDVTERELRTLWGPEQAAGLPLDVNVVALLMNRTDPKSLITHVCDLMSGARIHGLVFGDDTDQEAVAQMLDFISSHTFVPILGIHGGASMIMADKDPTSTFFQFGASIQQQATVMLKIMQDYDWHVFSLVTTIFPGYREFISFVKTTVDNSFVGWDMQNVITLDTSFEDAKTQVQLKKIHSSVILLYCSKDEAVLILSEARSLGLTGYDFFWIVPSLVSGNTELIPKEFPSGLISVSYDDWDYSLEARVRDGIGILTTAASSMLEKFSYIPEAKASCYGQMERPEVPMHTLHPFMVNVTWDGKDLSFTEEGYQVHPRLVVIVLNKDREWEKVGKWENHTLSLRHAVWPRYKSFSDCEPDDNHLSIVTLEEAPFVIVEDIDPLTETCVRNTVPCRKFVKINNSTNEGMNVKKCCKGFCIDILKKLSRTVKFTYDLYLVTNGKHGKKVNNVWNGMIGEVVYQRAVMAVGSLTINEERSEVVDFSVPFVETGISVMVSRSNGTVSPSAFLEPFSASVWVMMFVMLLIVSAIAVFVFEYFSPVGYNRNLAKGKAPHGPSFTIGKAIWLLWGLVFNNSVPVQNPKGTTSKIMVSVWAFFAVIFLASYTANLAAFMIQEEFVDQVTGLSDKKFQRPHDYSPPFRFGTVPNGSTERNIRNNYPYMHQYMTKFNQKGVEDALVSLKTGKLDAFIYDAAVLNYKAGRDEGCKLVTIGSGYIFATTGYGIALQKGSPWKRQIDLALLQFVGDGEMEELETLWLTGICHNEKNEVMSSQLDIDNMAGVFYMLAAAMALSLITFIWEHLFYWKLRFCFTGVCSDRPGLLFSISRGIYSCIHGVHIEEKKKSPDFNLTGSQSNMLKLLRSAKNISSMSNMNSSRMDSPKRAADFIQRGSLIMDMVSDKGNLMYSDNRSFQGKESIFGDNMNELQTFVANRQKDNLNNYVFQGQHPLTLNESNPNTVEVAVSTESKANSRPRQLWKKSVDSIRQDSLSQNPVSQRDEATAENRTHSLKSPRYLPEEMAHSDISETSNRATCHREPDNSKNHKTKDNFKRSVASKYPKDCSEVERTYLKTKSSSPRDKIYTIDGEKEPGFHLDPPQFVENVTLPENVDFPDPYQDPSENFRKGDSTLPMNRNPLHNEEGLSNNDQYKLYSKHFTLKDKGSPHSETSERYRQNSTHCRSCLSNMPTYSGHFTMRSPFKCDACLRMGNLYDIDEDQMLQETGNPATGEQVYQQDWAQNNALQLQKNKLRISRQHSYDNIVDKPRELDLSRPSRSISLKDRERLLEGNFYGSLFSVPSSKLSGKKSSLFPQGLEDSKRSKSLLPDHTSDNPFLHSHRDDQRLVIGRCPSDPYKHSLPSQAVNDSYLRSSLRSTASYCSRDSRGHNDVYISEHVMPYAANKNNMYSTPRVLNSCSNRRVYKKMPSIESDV

Compound	pEC50	Max %
Cc1sc2nc(Cn3nc(C(F)(F)F)cc3C3CC3)cc(=O)n2c1[C@@H]1C[C@H]1CO (relative stereo) [Example 15.11, 7-((5-cyclopropyl-3-(trifluoromethyl)-1H-pyrazol-1-yl)methyl)-3-(trans-2-(hydroxymethyl)cyclopropyl)-2-methyl-5H-thiazolo[3,2-a]pyrimidin-5-one]	6.82	159%
Cc1sc2nc(Cn3nc(C4CC4)cc3C(F)(F)F)cc(=O)n2c1[C@@H]1C[C@H]1CO (relative stereo) [Example 15.12, 7-((3-cyclopropyl-5-(trifluoromethyl)-1H-pyrazol-1-yl)methyl)-3-(trans-2-(hydroxymethyl)cyclopropyl)-2-methyl-5H-thiazolo[3,2-a]pyrimidin-5-one]	5.60	143%
Cc1sc2nc(Cn3nc(C4CC4)cc3C3CC3)cc(=O)n2c1[C@@H]1C[C@H]1CO (relative stereo) [Example 15.17, 7[(3,5-dicyclopropylpyrazol-1-yl)methyl]-3-[trans-2-(hydroxymethyl)cyclopropyl]-2-methyl-thiazolo[3,2-a]pyrimidin-5-one]	5.47	137%
Cc1cc(C)n(Cc2nc3sc(C)c([C@@H]4C[C@H]4CO)n3c(=O)c2F)n1 (relative stereo) [Example 15.18, 7-((3,5-dimethyl-1H-pyrazol-1-yl)methyl)-6-fluoro-3-(trans-2-(hydroxymethyl)cyclopropyl)-2-methyl-5H-thiazolo[3,2-a]pyrimidin-5-one]	4.98	143%
Cc1sc2nc(Cn3nc(C(F)(F)F)cc3C#N)cc(=O)n2c1[C@@H]1C[C@H]1CO (relative stereo) [Example 15.19, 1-((3-(trans-2-(hydroxymethyl)cyclopropyl)-2-methyl-5-oxo-5H-thiazolo[3,2-a]pyrimidin-7-yl)methyl)-3-(trifluoromethyl)-1H-pyrazole-5-carbonitrile]	6.29	126%
Cc1sc2nc(Cn3nc(C(F)(F)F)cc3C3CC3)c(F)c(=O)n2c1[C@@H]1C[C@H]1CO (relative stereo) [Example 15.20, 7-((5-cyclopropyl-3-(trifluoromethyl)-1H-pyrazol-1-yl)methyl)-6-fluoro-3-(trans-2-(hydroxymethyl)cyclopropyl)-2-methyl-5H-thiazolo[3,2-a]pyrimidin-5-one]	6.50	153%
Cc1sc2nc(Cn3nc(C#N)cc3C)cc(=O)n2c1[C@@H]1C[C@H]1CO (relative stereo) [Example 15.21, 1-[[3-[trans-2-(hydroxymethyl)cyclopropyl]-2-methyl-5-oxo-thiazolo[3,2-a]pyrimidin-7-yl]methyl]-5-methyl-pyrazole-3-carbonitrile]	5.80	161%
Cc1sc2nc(Cn3nc(C(F)F)cc3C)cc(=O)n2c1[C@@H]1C[C@H]1CO (relative stereo) [Example 15.22, 7[[3-(difluoromethyl)-5-methyl-pyrazol-1-yl]methyl]-3-[trans-2-(hydroxymethyl)cyclopropyl]-2-methyl-thiazolo[3,2-a]pyrimidin-5-one]	6.15	149%
Cc1sc2nc(Cn3ncc4ccc(F)cc43)cc(=O)n2c1[C@@H]1C[C@H]1CO (relative stereo) [Example 15.23, 7-[(6-fluoroindazol-1-yl)methyl]-3-[trans-2-(hydroxymethyl)cyclopropyl]-2-methyl-thiazolo[3,2-a]pyrimidin-5-one]	5.72	143%
Cc1cc(C)n(Cc2cc(=O)n3c([C@@H]4C[C@H]4CO)c(C)sc3n2)n1 (relative stereo) [Example 15.25, 7-[(3,5-dimethylpyrazol-1-yl)methyl]-3-[trans-2-(hydroxymethyl)cyclopropyl]-2-methyl-thiazolo[3,2-a]pyrimidin-5-one]	4.78	137%
Cc1sc2nc(Cn3ncc4cc(F)ccc43)cc(=O)n2c1[C@@H]1C[C@H]1CO (relative stereo) [Example 15.26, 7-[(5-fluoroindazol-1-yl)methyl]-3-[trans-2-(hydroxymethyl)cyclopropyl]-2-methyl-thiazolo[3,2-a]pyrimidin-5-one]	5.42	123%
Cc1sc2nc(C(C)n3nc(C(F)(F)F)cc3C3CC3)cc(=O)n2c1[C@@H]1C[C@H]1CO (relative stereo) [Example 19.1, 7-(1-(5-cyclopropyl-3-(trifluoromethyl)-1H-pyrazol-1-yl)ethyl)-3-(trans-2-(hydroxymethyl)cyclopropyl)-2-methyl-5H-thiazolo[3,2-a]pyrimidin-5-one]	4.91	116%
Cc1sc2nc(Cc3cccc(C#N)c3F)cc(=O)n2c1[C@@H]1C[C@H]1CO (relative stereo) [Example 20.3, 2-fluoro-3-((3-(trans-2-(hydroxymethyl)cyclopropyl)-2-methyl-5-oxo-5H-thiazolo[3,2-a]pyrimidin-7-yl)methyl)benzonitrile]	5.74	148%
Cc1sc2nc(Cc3cncc4ccccc34)cc(=O)n2c1[C@@H]1C[C@H]1CO (relative stereo) [Example 20.4, 3-(trans-2-(hydroxymethyl)cyclopropyl)-7-(isoquinolin-4-ylmethyl)-2-methyl-5H-thiazolo[3,2-a]pyrimidin-5-one]	5.07	147%
Cc1sc2nc(Cc3cccc(C(F)(F)F)c3)cc(=O)n2c1[C@@H]1C[C@H]1CO (relative stereo) [Example 20.5, 3-(trans-2-(hydroxymethyl)cyclopropyl)-2-methyl-7-(3-(trifluoromethyl)benzyl)-5H-thiazolo[3,2-a]pyrimidin-5-one]	4.62	124%
Cc1ccc(C#N)cc1Cc1cc(=O)n2c([C@@H]3C[C@H]3CO)c(C)sc2n1 (relative stereo) [Example 20.6, 3-((3-(trans-2-(hydroxymethyl)cyclopropyl)-2-methyl-5-oxo-5H-thiazolo[3,2-a]pyrimidin-7-yl)methyl)-4-methylbenzonitrile]	5.14	137%
Cc1sc2nc(Cc3cc(C#N)ccc3F)cc(=O)n2c1[C@@H]1C[C@H]1CO (relative stereo) [Example 20.7, 4-fluoro-3-((3-(trans-2-(hydroxymethyl)cyclopropyl)-2-methyl-5-oxo-5H-thiazolo[3,2-a]pyrimidin-7-yl)methyl)benzonitrile]	4.97	137%
Cc1sc2nc(Cc3cc(F)cc(C#N)c3)cc(=O)n2c1[C@@H]1C[C@H]1CO (relative stereo) [Example 20.8, 3-fluoro-5-((3-(trans-2-(hydroxymethyl)cyclopropyl)-2-methyl-5-oxo-5H-thiazolo[3,2-a]pyrimidin-7-yl)methyl)benzonitrile]	4.72	134%
Cc1sc2nc(Cc3ccc(F)c(C#N)c3)cc(=O)n2c1[C@@H]1C[C@H]1CO (relative stereo) [Example 20.9, 2-fluoro-5-((3-(trans-2-(hydroxymethyl)cyclopropyl)-2-methyl-5-oxo-5H-thiazolo[3,2-a]pyrimidin-7-yl)methyl)benzonitrile]	4.86	133%
